{"source": "patent US10624867B2", "about": "“Transdermally-delivered combination drug therapy for pain” (BioChemics, Inc., priority 2017, dated 2020)", "key": {"[1]": {"tested_on": "Complete Freund's Adjuvant (CFA)-induced thermal hyperalgesia", "test": "CFA inflammation model, thermal response (paw withdrawal latency to radiant heat), set A", "assay_type": "in vivo, Sprague-Dawley rats", "conditions": "for thermal antihyperalgesia: topical cream to hindpaw, day 3 at 2 and 4 hours after treatment", "description": "Baselines were established for all rats for thermal response latency before intraplantar (i.pl.) injection of the inflammatory agent. Three days after injection of the inflammatory agent (CFA), the degree of thermal hypersensitivity was determined followed by topical application to anesthetized rats of i) the drug-free cream, creams containing ii) ibuprofen, iii) gabapentin, and each the combination of ibuprofen with gabapentin using a topical cream optimized for deep skin penetration/vascular access. Six experimental groups were used in total Application of ibuprofen cream served both as an active pharmacological agent and positive control throughout these studies. The drug formulation and control cream (negative control) was applied to the glabrous side of the rat hindpaw using a previously published method. Nozaki-Taguchi, N. and T. L. Yaksh., Characterization of the Antihyperalgesic Action of a Novel Peripheral Mu-opioid Receptor Agonist-loperamide, Anesthesiology, 90: 225-234, 1999; Iadarola, M. J., et al., Increased Spinal Cord Dynorphin mRNA During Peripheral Inflammation, NIDA Re.s Monogr., 75: 406-409, 1986.\nRats were isoflurane-anesthetized (1-2%) and the cream (0.2 g) applied gently with a finger for 1 minute to the glabrous skin of the hindpaw. For low drug concentrations, 5% formulations of all drugs were. For high drug concentrations, 10% cream formulations were employed. […] Upon recovery from anesthesia (within 10 minutes of cessation of anesthetic), rats were moved to plexiglass enclosures for sensory assessment. Efficacy was initially tested at 1, 2, 4, 8, 24 hours after cream treatment; depending on initial results. Time was revised to track the onset and offset of drug effects.\n(§1) Two parallel studies (two arms) were done, each with four treatment groups, with four Sprague-Dawley rats per group. The rats used were male rats weighing 175-200 grams. Half of the rats were given injections of 1:1 complete Freund's adjuvant (CFA) on day 0 to produce long-term inflammation of the left hindpaw; the other half of the rats were given spared nerve injury (SNI, transection of 2 of 3 branches of the sciatic nerve) in the lower thigh on day 0.\n(§2) Before treatments, rats' baseline response thermal latencies (on a glass surface suspended above a moveable heat lamp) or mechanical thresholds (on a wire mesh surface suspended above a moveable electronic von Frey stimulator) were determined after 15 min acclimatization on the thermal or mechanical testing apparatuses.\n(§3) The CFA model of persistent inflammatory hyperalgesia in one hindpaw of the rats was utilized (see Gold and Gebhart, Nature Medicine 16: 1248-1257, 2010). This model produces edema, reddening, inflammation, and behavioral hypersensitivity. Experimental groups of rats were anesthetized with isoflurane before receiving an intraplantar injection into the left hindpaw of 100 μl of CFA (1:1 with sterile PBS) using a sterile 0.5 ml syringe. The CFA model produced inflammatory signs accompanied by thermal and mechanical hyperalgesia in the injected hindpaw within six to eight hours. The hypersensitivity peaks at 3 days, which was the first testing day of the analgesic topical formulations in the CFA model.\nOne of four treatments was applied to each rat on days 3, 7 and 11 after CFA injection or on days 7, 14 and 21 after SNI application. […] For the formulations with ibuprofen and/or gabapentin, the formulation also contained vasodilators arginine and methyl nicotinate, chelator EDTA, solvents dimethyl acetamide and water, osmolyte potassium hydroxide, lipids soy bean oil and olive oil, and various other excipients including eucalyptol, gelcarin GP-379NF, glyceryl monostearate, menthol, methyl paraben, propylparaben, phenoxyethanol, permulen TR-1, phospolipon 90H, ST elastomer, urea, and Vitamin E TPGS. […]"}, "[2]": {"tested_on": "CFA inflammation-induced mechanical hyperalgesia", "test": "CFA inflammation model, mechanical response (von Frey stimulation), set A", "assay_type": "in vivo, Sprague-Dawley rats", "conditions": "CFA rats", "description": "as §1, §2, §3\nOne of four treatments was applied to each rat on days 3, 7 and 11 after CFA injection or on days 7, 14 and 21 after SNI application. […] For the formulations with ibuprofen and/or gabapentin, the formulation also contained vasodilators arginine and methyl nicotinate, chelator EDTA, solvents dimethyl acetamide and water, osmolyte potassium hydroxide, lipids soy bean oil and olive oil, and various other excipients including eucalyptol, gelcarin GP-379NF, glyceryl monostearate, menthol, methyl paraben, propylparaben, phenoxyethanol, permulen TR-1, phospolipon 90H, ST elastomer, urea, and Vitamin E TPGS.\nFor application of the topical formulation, the rats were anesthetized with isoflurane for 30 min. while the creams were applied to both hindpaws to minimize oral absorption as described in Nozaki-Taguchi et al., Anesthesiology 90: 225-234, 1999; Iadarola et al., NIDA Res. Monogr. 75: 406-409, 1986. […]\nIn these studies, the sensory responsiveness to thermal (radiant heat) stimuli was assessed in terms of time to elicit paw withdrawal. […] Sensory responses to mechanical stimulus (von Frey stimulation) were also assessed prior to CFA injection and following several days after inflammation (FIGS. 2A-2C) or nerve injury (FIGS. 4A-5C). […]"}, "[3]": {"conditions": "CFA rats, days 7 and 12 post-CFA"}, "[4]": {"conditions": "day 11 at 2 hours after treatment"}, "[5]": {"conditions": "day 12 at 2 hours after treatment"}}}
{"smiles": "NCC1(CC(=O)O)CCCCC1", "note": "[gabapentin]", "values": [{"measurement": "thermal antihyperalgesia (possible efficacy) on later days", "setting": "[1]; [3]", "value": "not repeated"}, {"measurement": "thermal antihyperalgesia", "setting": "[1]; CFA rats", "value": "borderline significant"}, {"measurement": "suppression of thermal hyperalgesia", "setting": "[1]; CFA rats, transdermal delivery, drug alone", "value": "failed to suppress"}, {"measurement": "efficacy against mechanical hyperalgesia, agent given alone", "setting": "[2]; [4]", "value": "efficacious"}, {"measurement": "efficacy against mechanical hyperalgesia, agent given alone", "setting": "[2]; [5]", "value": "efficacious"}]}
{"smiles": "CC(C)Cc1ccc(C(C)C(=O)O)cc1", "note": "(stereo not drawn) [ibuprofen, 2-[4-(2-methylpropyl)phenyl]propanoic acid]", "values": [{"measurement": "reversal of hyperalgesia", "setting": "[1]; CFA rats, cream applied for 20 minutes, 1 hour after treatment on day 3 post-CFA", "value": "completely reversed"}, {"measurement": "duration of beneficial impact of the drug", "setting": "[1]; CFA rats, day 3 post-CFA", "value": 4, "unit": "h"}, {"measurement": "hyperalgesia after 24 hours", "setting": "[1]; CFA rats, day 3 post-CFA, 24 hours after treatment", "value": "completely returned to the baseline level"}, {"measurement": "statistical significance of the effect", "setting": "[1]; CFA rats, day 3 post-CFA, vs vehicle (ANOVA, Dunnett)", "value": "statistically significant"}, {"measurement": "thermal antihyperalgesia (possible efficacy) on later days", "setting": "[1]; CFA rats, days 7 and 11 post-CFA", "value": "not repeated"}, {"measurement": "thermal antihyperalgesia (possible efficacy) on later days", "setting": "[1]; [3]", "value": "not repeated"}, {"measurement": "thermal antihyperalgesia", "setting": "[1]; CFA rats", "value": "borderline significant"}, {"measurement": "reversal of thermal hypersensitivity", "setting": "[1]; FIGS. 1A-1C, at some time points during the testing period", "value": "significant reversal"}, {"measurement": "efficacy against mechanical hyperalgesia, agent given alone", "setting": "[2]; [4]", "value": "efficacious"}, {"measurement": "efficacy against mechanical hyperalgesia, agent given alone", "setting": "[2]; [5]", "value": "efficacious"}]}
